# Measured values reported in patent publication US10966962B2, “Method for treating neurodegenerative diseases” (THE BOARD OF TRUSTEES OF THE LELAND STANFORD JUNIOR …, priority 2014, dated 2021).
# How the values were obtained:
# MPTP-treated animals [1] = experiment: Wheel-running test in MPTP model of PD; type: in vivo, mice; conditions: 25 mg/kg orally 7 days, accelerating speed 5-15 rpm, Day 8
# Experimental: The wheel-running test has been widely used as one of the most reliable measurements of behavioral dysfunction in animal models of neurodegeneration ([…] et al, Behav Brain Res, 125:109-25, 2001). In this study, animals were trained to run on a treadmill at specific speed and training duration before undergoing a formal test of motor skills. Motor performance of animals was evaluated by the time (seconds) that they remained running on the treadmill, which required motor coordination and strength. […] Animals with microglia-specific deletion of Ppargc1a were generated as described in Example 1. At 7 weeks of age, these animals were subjected to 1.5 weeks of training on a treadmill at a constant speed 10 rpm (rotations per minute) and then 1.5 weeks of training at an accelerating speed from 5-15 rpm. After the training period at 10 weeks of age, animals were treated with MPTP and tested for motor performance at an accelerating speed from 5-15 rpm. […] Unpaired t-tests were used for statistical analyses.
# ALS transgenic mice = experiment: Survival of ALS transgenic animals; type: in vivo
# Experimental: ALS transgenic mice were orally treated 3 times a week with 0.5% methylcellulose or ZLN005 (Sigma) at 25 mg/kg in 0.5% methylcellulose, starting at 5, 10 and 15 weeks of age.
# Survival of ALS-Ctrl (n=18) and ALS-ZLN mice (n=8) were monitored until all animals succumbed. […] Log-rank test was used for statistical analysis.
# microglia [2] = experiment: Microglia IL1 and TNFα in 5XFAD AD transgenic animals; type: in vivo, mice; conditions: 25 mg/kg orally 3 times a week for 4 weeks, 7 weeks of age
# Text: 5XFAD transgenic mice, which are model of familial AD, were purchased from Jackson Laboratories (Oakley et al J Neurosci. 26:10129-40, 2006). These animals overexpress both mutant human APP(695) with the Swedish (K670N, M671L), Florida (I716V), and London (V7171) Familial Alzheimer's Disease (FAD) mutations and human PS1 harboring two FAD mutations, M146L and L286V. These transgenic mice rapidly recapitulate major features of amyloid pathology in AD by 8-10 weeks of age. Microglia abnormalities and neuroinflammation are also pronounced within this time window. Subsequently, neurodegeneration and behavioral dysfunction that mimic cognitive and psychiatric symptoms of human AD begin and are pronounced by 4-5 months of age. AD transgenic animals were orally treated 3 times a week for 4 weeks with 0.5% methylcellulose or ZLN005 (Sigma) at 25 mg/kg in 0.5% methylcellulose, starting at 3 weeks of age. For studies of microglia, 5[…]=10), 5XFAD-Ctrl (n=8) and WT (n=11) animals were sacrificed at 7 weeks of age. PBS-perfused brain tissues of sacrificed animals were digested with Collagenase IV and processed for flow cytometry. Brain microglia were phenotyped with antibodies directed against mouse IL1 and TNFα (Biolegend) for flow cytometric acquisition (LSRII, BD) and analysis (FlowJo). The results are summarized in FIG. 12; Y-axis represents % of microglia that express IL1 (A) and TNFα (B). […]
# [3] = test system: brains of STZ-treated-animals; experiment: Gene expression in brain in acute STZ model of AD; type: in vivo, mice; conditions: 25 mg/kg orally daily until Day 4
# Experimental: (§1) To induce symptoms of AD, STZ (3 mg/kg, Sigma) was administered via intracerebral injection ([…] et al, Int J Neurosci, PMID 24494726, 2014). This is a well-established model of the sporadic form of AD. Briefly, animals were anesthetized and STZ solution in 5 μl artificial cerebrospinal fluid (Harvard Apparatus) was injected through the skull with a 50 μl syringe. Control animals received a similar volume of artificial cerebrospinal fluid without STZ. The injections were performed twice, on Day 1 and Day 3. […] Treatment with ZLN005 was continued on a daily schedule until Day 4.
# MPTP-treated animals [4] = experiment: Nest-building test in MPTP model of PD; type: in vivo, mice; conditions: one dose 25 mg/kg
# Experimental: Impaired nest-building skill has been widely used as one of the most reliable indication of motor dysfunction in the MPTP model of […] et al, Behav Brain Res, 125:109-25, 2001). In this test, animals are given cotton pads to be used as nestling, and are tested for their abilities to tear off the cotton pads into small pieces to build a nest; these abilities require fine motor coordination. Animals with microglia-specific deletion of Ppargc1a and controls were generated as described in Example 1. […] Control animals received a similar volume of PBS. Immediately after the last dosage of MPTP, each animal was put in one cage and given two cotton pads to be used in nestling; the appearance of the cotton pads was evaluated 16 hours later. The results are shown in FIG. 7 as weights of shredded nestlets (n=9-10 animals per treatment group). […] MPTP-ZLN animals generated more cotton-debris in comparison to the MPTP-Ctrl group. […] Unpaired t-tests were used for statistical analyses.
# [5] = test system: CD45hi CD11b+F4/80+brain perivascular macrophages; experiment: Frequency of brain perivascular macrophages in ALS transgenic animals; type: in vivo, mice; conditions: 25 mg/kg orally 3 times a week for 8 weeks, 13 weeks of age
# Experimental: ALS transgenic animals were orally treated 3 times a week for 8 weeks with 0.5% methylcellulose or ZLN005 (Sigma) at 25 mg/kg in 0.5% methylcellulose, starting at 5 weeks of age. For measuring the frequency of CD45hi CD11b+F4/80+brain perivascular macrophages, ALS-Ctrl (n=13), ALS-ZLN (n=17), and WT animals (n=17) were sacrificed at 13 weeks of age. PBS-perfused brain tissues of sacrificed animals were digested with Collagenase IV and processed for flow cytometry. The results are summarized in FIG. 19; Y-axis represents % of brain perivascular macrophages among total brain immune cells in the brain. […] ANOVA was used for statistical analysis.
# microglia [6] = experiment: Microglia flow cytometry in acute STZ model of AD (TNF-α, ThioltrackerViolet, MitotrackerRed); type: in vivo, mice
# Experimental: as §1, with “7. […] Microglia were phenotyped with antibodies directed against mouse TNF-α (Biolegend) and metabolic dyes […], and MitotrackerRed (Invitrogen) for flow cytometric acquisition (LSRII, BD) and analysis (FlowJo). […] ANOVA was used for statistical analyses.” for “4.”
# [7] = STZ-treated animals, 25 mg/kg orally daily until Day 7
structure (smiles),measurement,setting,value
"CC(C)(C)c1ccc(-c2nc3ccccc3[nH]2)cc1 [ZLN005, 2-(4-tert-butylphenyl)-1H-benzimidazole]","latency to fall, wheel running",MPTP-treated animals [1]; MPTP-treated Cre animals,not present in Cre animals
same,"latency to fall, wheel running",MPTP-treated animals [1]; MPTP-treated FF animals,performed significantly better than vehicle treated mice
same,onset of hind limb paralysis,ALS transgenic mice; ALS transgenic mice,delayed
same,mean survival,"ALS transgenic mice; ALS transgenic, 25 mg/kg orally 3 times a week starting at 5 or 10 weeks of age, p <0.05 vs ALS-Ctrl",131 to 132 days
same,IL1 production in microglia,microglia [2],decreased
same,TNFα production in microglia,microglia [2],decreased
same,"expression of genes involved in Ppargc1a signaling and antioxidant defense (Tfam, Cytc) in the brain",[3],increased expression
same,expression of genes involved in β-amyloid generation (App and Psen1) in the brain,[3],decreased the expression
same,"nest-building, weights of shredded nestlets (fine motor skills)",MPTP-treated animals [4]; MPTP-treated Cre animals,present only in FF animals but not in Cre animals
same,"nest-building, weights of shredded nestlets (fine motor skills)","MPTP-treated animals [4]; MPTP-treated FF animals, evaluated 16 hours later, vs MPTP-Ctrl",marked improvement in their fine motor skills
same,percentage of brain perivascular macrophages among total brain immune cells,[5],decreased
same,TNF-α production in microglia,microglia [6]; [7],suppressed TNF-α production
same,mitochondrial potential in microglia (MitotrackerRed),microglia [6]; [7],enhanced
same,production of glutathione in microglia (ThioltrackerViolet),microglia [6]; [7],enhanced
same,glycolysis in microglia,microglia [6]; microglia isolated from STZ-treated animals,enhanced glycolysis
